How the values were obtained:
Format in all cases: in vivo
[1] = system: Erysiphe cichoracearum on cucumbers; test: Greenhouse trial, 4 day residual, Erysiphe cichoracearum on cucumbers
Description: (§1) The fungicides are applied in single treatments, or in a combination comprising a benzophenone of formula I and a compound selected from (A) through (E) as defined above. The compounds are applied in form of an aqueous spray mix obtained from a concentrated formulation or the technical material.
(§2) 1. Seed is planted in 6 cm diameter plastic pots and maintained in the greenhouse.
(§3) 2. When the primary leaf is fully expanded (in the case of cereals) or several leaves are present (in the case of dicots), formulated test compounds are sprayed with a three nozzle overhead fungicide sprayer to near run-off. Alternatively, a single nozzle overhead track sprayer is used for application of the compounds to cereals at a rate of 200 liters/ha (l/ha). Plants are then allowed to air-dry.
(§4) 3. Inoculation precedes treatment in the case of curative evaluations and follows treatment in case of residual evaluations. For inoculation of powdery mildew disease, plants are set up on greenhouse benches with bottom watering mats and inoculated by dusting them with conidia from infected plants. Between inoculation and treatment for curative evaluations and between treatment and inoculation for residual evaluations, plants are maintained in the greenhouse with bottom watering. For inoculation of non-powdery mildew diseases, an aqueous spore suspension of the pathogen is applied to the plant and the plants are kept 1-2 days in a moist infection chamber before being returned to the greenhouse where they are maintained by bottom watering.
(§5) 4. Disease on the foliage as percent leaf area with disease symptoms/signs is evaluated about 7 days after inoculation. In the case of wheat, the tips and bases of the leaves are excluded from the evaluation. [formula]
(§6) 1. Technical compounds are formulated in a solvent/surfactant system consisting of 5% acetone and 0.05% Tween 20 in deionized water. Compounds are dissolved in acetone prior to addition of the water; the Tween 20 can be added through either the acetone or the water. Dilutions are made using the solvent/surfactant system. Formulated compounds are prepared using deionized water.
(§7) Assessments of the diseases took place at the indicated day after the application of the compounds. Per cent infected leaf area infected was evaluated. The efficacy of the compounds/compounds mixtures to control the diseases was calculated by using the formula given above under item 4: […]
(§8) Synergy of a fungicide mixture was determined by comparing the actual (observed) fungicidal activity of the mixture to the expected fungicidal activity of the mixture as calculated using the COLBY formula given hereinabove.

[2] = system: Leptosphaeria nodorum on wheat; test: Greenhouse trial, 4 day residual, Leptosphaeria nodorum on wheat; conditions: Table VIII, compound alone
Description: as §1, §2, §3, §4, §5, §6, §7, §8
Fungicidal Efficacy of the Mixture of BP-4+Other Fungicides (4 Day Residual) Against Leptosphaeria nodorum on Wheat

[3] = system: Puccinia recondita on wheat; test: Greenhouse trial, 4 day residual, Puccinia recondita on wheat
Description: as §1, §2, §3, §4, §5, §6, §7, §8
Fungicidal Efficacy of the Mixture of BP-4+Other Fungicides (4 Day Residual) Against Puccinia recondita on Wheat
Fungicidal Efficacy of the Mixture of BP-4+Myclobutanil (4 Day Residual) Against Puccinia recondita on Wheat

[4] = system: Blumeria graminis on wheat; test: Greenhouse trial, 3 day protective, Blumeria graminis on wheat; conditions: compound alone
Description: as §1, §2, §3, §4, §5, §6, §7, §8
Fungicidal Efficacy of the Mixture of BP-5+Triforine (3 Day Protective) Against Blumeria graminis on Wheat
Fungicidal Efficacy of the Mixture of BP-1+Triadimefon (3 Day Protective) Against Blumeria graminis on Wheat

[5] = system: Blumeria graminis on wheat; test: Greenhouse trial, 4 day curative, Blumeria graminis on wheat; conditions: compound alone
Procedure: The trials are carried out under greenhouse (Examples 1 to 18) or field conditions (Example 19) in residual or curative applications. The fungicides are applied in single treatments, or in a combination comprising a benzophenone of formula I and a compound selected from (A) through (E) as defined above. The compounds are applied in form of an aqueous spray mix obtained from a concentrated formulation or the technical material. […] Seed is planted in 6 cm diameter plastic pots and maintained in the greenhouse. […] When the primary leaf is fully expanded (in the case of cereals) or several leaves are present (in the case of dicots), formulated test compounds are sprayed with a three nozzle overhead fungicide sprayer to near run-off. Alternatively, a single nozzle overhead track sprayer is used for application of the compounds to cereals at a rate of 200 liters/ha (l/ha). Plants are then allowed to air-dry. […] Inoculation precedes treatment in the case of curative evaluations and follows treatment in case of residual evaluations. For inoculation of powdery mildew disease, plants are set up on greenhouse benches with bottom watering mats and inoculated by dusting them with conidia from infected plants. Between inoculation and treatment for curative evaluations and between treatment and inoculation for residual evaluations, plants are maintained in the greenhouse with bottom watering. For inoculation of non-powdery mildew diseases, an aqueous spore suspension of the pathogen is applied to the plant and the plants are kept 1-2 days in a moist infection chamber before being returned to the greenhouse where they are maintained by bottom watering. […] Disease on the foliage as percent leaf area with disease symptoms/signs is evaluated about 7 days after inoculation. In the case of wheat, the tips and bases of the leaves are excluded from the evaluation. [formula] […] Compounds are dissolved in acetone prior to addition of the water; the Tween 20 can be added through either the acetone or the water. Dilutions are made using the solvent/surfactant system. Formulated compounds are prepared using deionized water. Assessments of the diseases took place at the indicated day after the application of the compounds. Per cent infected leaf area infected was evaluated. […] Synergy of a fungicide mixture was determined by comparing the actual (observed) fungicidal activity of the mixture to the expected fungicidal activity of the mixture as calculated using the COLBY formula given hereinabove.

[6] = system: Uncinula necator on vines; test: Greenhouse trial, 1 day residual, Uncinula necator on vines; conditions: Table XVIII, compound alone
Procedure: as §1, with “The trials are carried out under greenhouse (Examples 1 to 18) or field conditions (Example 19) in residual or curative applications. The fungicides” for “The fungicides”
as §2, §3, §4, §5, §6, §7, §8
Fungicidal Efficacy of the Mixture of BP-4+AP-4 (1 Day Residual) Against Uncinula necator on Vines
The tank mixes were obtained from technical material of BP-4 and AP-4. The active ingredients, the type of formulations, the observed and expected efficacies with different rates are given in Table XVIII: […]

[7] = system: Blumeria graminis f. sp. tritici on wheat; test: Greenhouse trial, 2 day curative, Blumeria graminis f. sp. tritici on wheat; conditions: Table XVII, compound alone
Procedure: as §1, with “The trials are carried out under greenhouse (Examples 1 to 18) or field conditions (Example 19) in residual or curative applications. The fungicides” for “The fungicides”
as §2, §3, §4, §5, §6, §7, §8
Fungicidal Efficacy of the Mixture of Different Benzophenones+Metconazole (2 Day Curative) Against Blumeria graminis f. sp. tritici on Wheat
The tank mixes were obtained from technical material of the benzophenones BP-2 and BP-4 and metconazole.

[8] = system: Pyrenophora teres on barley; test: Greenhouse trial, 4 day residual, Pyrenophora teres on barley; conditions: Table XVI (Example 16), 4 day residual
Description: as §1, §2, §3, §4, §5, §6, §7, §8
Fungicidal Efficacy of the Mixture of BP-4+Other Fungicides (4 Day Residual) Against Pyrenophora teres on Barley

[9] = Golovinomyces cichoracearum, 96 h, Table XIV (Example 14), 4 day residual, dose rate 0.4 ppm, read-out: Observed Efficacy
[10] = Golovinomyces cichoracearum, 96 h, Table XIV (Example 14), 4 day residual, dose rate 2 ppm, read-out: Observed Efficacy
[11] = Golovinomyces cichoracearum, 96 h, Table XIV (Example 14), 4 day residual, dose rate 10 ppm, read-out: Observed Efficacy
[12] = Table XIV (Example 14), 4 day residual, dose rate 10 ppm

triforine
Observed Efficacy ([1]; Table VI, compound alone, dose rate 4 ppm): 1% | Observed Efficacy ([1]; Table VI, compound alone, dose rate 16 ppm): 44% | Observed Efficacy ([1]; Table VI, compound alone, dose rate 64 ppm): 79% | Observed Efficacy ([1]; Table VI, compound alone, dose rate 256 ppm): 96% | Observed Efficacy ([2]; dose rate 1 ppm): 0% | Observed Efficacy ([2]; dose rate 4 ppm): 4% | Observed Efficacy ([2]; dose rate 16 ppm): 31% | Observed Efficacy ([2]; dose rate 64 ppm): 51% | Observed Efficacy ([2]; dose rate 256 ppm): 85% | Observed Efficacy ([3]; Table VII, compound alone, dose rate 4 ppm): 0% | Observed Efficacy ([3]; Table VII, compound alone, dose rate 16 ppm): 7% | Observed Efficacy ([3]; Table VII, compound alone, dose rate 64 ppm): 90% | Observed Efficacy ([3]; Table VII, compound alone, dose rate 256 ppm): 100% | Observed Efficacy ([4]; Table IV, dose rate 125 ppm): 12%

Fc1cccc(Cl)c1-c1c(Cl)nc2ncnn2c1NC1CC1 [AP-1, 5-chloro-6-(2-chloro-6-fluorophenyl)-7-(cyclopropylamino)-[1,2,4]triazolo[1,5-a]pyrimidine]
Observed Efficacy ([5]; Table I, dose rate 25 ppm): 0% | Observed Efficacy ([5]; Table I, dose rate 125 ppm): 0%

CC(Nc1c(-c2c(F)cc(F)cc2F)c(Cl)nc2ncnn12)C(F)(F)F (stereo not drawn) [AP-4, 5-chloro-6-(2,4,6-trifluorophenyl)-7-[2-(1,1,1-trifluoro)propylamino]-[1,2,4]triazolo[1,5-a]pyrimidine]
Observed Efficacy ([6]; dose rate 0.03 ppm): 13% | Observed Efficacy ([6]; dose rate 0.06 ppm): 7% | Observed Efficacy ([6]; dose rate 0.12 ppm): 32% | Observed Efficacy ([6]; dose rate 0.25 ppm): 50% | Observed Efficacy ([6]; dose rate 0.5 ppm): 76% | Observed Efficacy ([6]; dose rate 1 ppm): 76%

COc1cc(C)c(C(=O)c2c(Cl)cccc2Cl)c(OCc2ccccc2F)c1OC [BP-2, 2,6-dichloro-4′,5′-dimethoxy-6′-(2-fluorobenzyloxy)-2′-methylbenzophenone]
Observed Efficacy ([7]; dose rate 0.67 ppm): 4% | Observed Efficacy ([7]; dose rate 2 ppm): 13% | Observed Efficacy ([7]; dose rate 6 ppm): 18% | Observed Efficacy ([7]; dose rate 18 ppm): 25% | Observed Efficacy ([7]; dose rate 54 ppm): 67%

CC1CCN(c2c(-c3c(F)cccc3Cl)c(Cl)nc3ncnn23)CC1 [AP-2, 5-chloro-6-(2-chloro-6-fluorophenyl)-7-(4-methylpiperid-1-yl)-[1,2,4]triazolo[1,5-a]pyrimidine]
Observed Efficacy ([5]; Table II, dose rate 25 ppm): 0% | Observed Efficacy ([5]; Table II, dose rate 125 ppm): 8%

COc1cc(C)c(C(=O)c2c(Cl)cccc2Cl)c(OC)c1OC [BP-5, 2,6-dichloro-2′-methyl-4′,5′,6′-trimethoxybenzophenone]
Observed Efficacy ([4]; Table IV, dose rate 5 ppm): 12% | Observed Efficacy ([4]; Table IV, dose rate 25 ppm): 31%

CC(Cc1ccc(C(C)(C)C)cc1)CN1C[C@@H](C)O[C@@H](C)C1 (stereo partly drawn) [Fenpropimorph]
pest or weed control at 0.4 ppm [1, 9]: 0% | pest or weed control at 2 ppm [1, 10]: 0% | pest or weed control at 10 ppm [1, 11]: 7% | pest or weed control at 0.4 ppm ([8]; Pyrenophora teres, 96 h, dose rate 0.4 ppm, read-out: Observed Efficacy): 0% | pest or weed control at 2 ppm ([8]; Pyrenophora teres, 96 h, dose rate 2 ppm, read-out: Observed Efficacy): 0% | pest or weed control at 10 ppm ([8]; Pyrenophora teres, 96 h, dose rate 10 ppm, read-out: Observed Efficacy): 3% | pest or weed control at 0.4 ppm ([3]; Puccinia recondita, 96 h, Table XV (Example 15), 4 day residual, dose rate 0.4 ppm, read-out: Observed Efficacy): 2% | pest or weed control at 2 ppm ([3]; Puccinia recondita, 96 h, Table XV (Example 15), 4 day residual, dose rate 2 ppm, read-out: Observed Efficacy): 15% | pest or weed control at 50 ppm ([3]; Puccinia recondita, 96 h, Table XV (Example 15), 4 day residual, dose rate 50 ppm, read-out: Observed Efficacy): 60%

Flusilazole
Observed Efficacy ([1]; Table XIV (Example 14), 4 day residual, dose rate 0.4 ppm): 0 | Observed Efficacy ([1]; Table XIV (Example 14), 4 day residual, dose rate 2 ppm): 0 | Observed Efficacy [1, 12]: 19 | Observed Efficacy ([8]; dose rate 2 ppm): 8 | Observed Efficacy ([8]; dose rate 10 ppm): 26 | Observed Efficacy ([3]; Table XV (Example 15), 4 day residual, dose rate 0.4 ppm): 5 | Observed Efficacy ([3]; Table XV (Example 15), 4 day residual, dose rate 2 ppm): 28

CC(C)(C)C(=O)C(Oc1ccc(Cl)cc1)n1cncn1 (stereo not drawn) [triadimefon]
pest or weed control at 0.4 ppm [1, 9]: 0% | pest or weed control at 2 ppm [1, 10]: 6% | pest or weed control at 10 ppm [1, 11]: 23% | pest or weed control at 50 ppm ([1]; Golovinomyces cichoracearum, 96 h, Table XIV (Example 14), 4 day residual, dose rate 50 ppm, read-out: Observed Efficacy): 47% | Observed Efficacy ([5]; Table III, dose rate 25 ppm): 12% | Observed Efficacy ([5]; Table III, dose rate 125 ppm): 30% | Observed Efficacy ([4]; Table V, dose rate 25 ppm): 24%

Dinocap
Observed Efficacy [1, 12]: 0 | Observed Efficacy ([8]; dose rate 50 ppm): 22 | Observed Efficacy ([3]; Table XV (Example 15), 4 day residual, dose rate 50 ppm): 54

Source: patent US6346535B1, “Fungicidal mixtures” (American Cyanamid Company, priority 1999, dated 2002)
